In the test the test system is wild type EBOV. The settings on record: 24 h.

pIC50: −log10 of the molar value. Bridge positions count the residues as written; N and C are the ends. Square brackets hold non-standard residues; d marks the D form. Side chains are listed from the residue outwards. Peptide text beside a SMILES is read from it. * marks the point of attachment. ξ: configuration not given here. Acetyl(2-S-3ξ-cholesteryl) = CC(C)CCC[C@@H](C)[C@H]1CC[C@H]2[C@@H]3CC=C4CC(SCC(=O)*)CC[C@]4(C)[C@H]3CC[C@]12C; R8 = C=CCCCCCC[C@@](C)(N)C(=O)O; PEG4 = NCCOCCOCCOCCOCCC(=O)O; S5 = C=CCCC[C@](C)(N)C(=O)O

The compound `CC[C@H](C)[C@H](NC(=O)[C@H](C)NC(=O)[C@H](CS)NC(=O)[C@H](CC(=O)O)NC(=O)[C@@H]1CCCN1C(=O)CNC(=O)[C@H](CC(C)C)NC(=O)[C@@H](NC(=O)[C@H](Cc1c[nH]cn1)NC(=O)[C@H](CS)NC(=O)[C@@H](NC(C)=O)[C@@H](C)O)[C@@H](C)CC)C(=O)N[C@@H](CCC(=O)O)C(=O)N1CCC[C@H]1C(=O)N[C@@H](Cc1c[nH]cn1)C(=O)N[C@@H](CC(=O)O)C(=O)N[C@@H](Cc1c[nH]c2ccccc12)C(=O)N[C@H](C(=O)N[C@]1(C)CCCCCCC=CCCC[C@@](C)(C(=O)N[C@@H](CCC(N)=O)C(=O)N[C@H](C(=O)N[C@H](C(=O)N[C@@H](Cc2c[nH]cn2)C(=O)N[C@@H](CC(=O)O)C(=O)N[C@@H](Cc2ccccc2)C(=O)N[C@H](C(=O)N[C@@H](CCCCNC(=O)CCOCCOCCOCCOCCNC(=O)CSC2CC[C@@]3(C)C(=CC[C@H]4[C@@H]5CC[C@H]([C@H](C)CCCC(C)C)[C@@]5(C)CC[C@@H]43)C2)C(N)=O)C(C)C)[C@@H](C)CC)[C@@H](C)CC)NC(=O)[C@H]([C@@H](C)CC)NC(=O)[C@H](CCCCN)NC(=O)[C@H](CC(=O)O)NC(=O)[C@H]([C@@H](C)O)NC(=O)[C@H]([C@@H](C)CC)NC(=O)[C@H](CC(N)=O)NC1=O)[C@@H](C)O` (stereo partly shown) [SEQ ID NO:22, TCHILGPDCAIEPHDWT8NITDKIXQIIHDFV*] (Ac-TCHILGPDCAIEPHDWT[R8]NITDKI[S5]QIIHDFVK([PEG4-Acetyl(2-S-3ξ-cholesteryl)])-NH2; staple 18-25) gave a pIC50 of around 5.82.

(Values after patent US20250288658A1 (priority 2022, published 2025).)
